# Results: ChEMBL document CHEMBL1201862, “PubChem BioAssay data set” (2004)
# Calls of active or inactive are those of the source.
# What was measured:
# [1] = target: ATP-dependent translocase ABCB1 (Homo sapiens, UniProt P08183); assay: inhibition of P-gp mediated JC-1 efflux – Jurkat-DNR cells, flow cytometry, dose response (AID 1689); assay type: functional
# [2] = target: Broad substrate specificity ATP-binding cassette transporter ABCG2 (Homo sapiens, UniProt Q9UNQ0); assay: blockers of JC-1 export by ABCG2 – Ig-MXP3 cells, flow cytometry, dose response (AID 1690); assay type: functional
# [3] = target: T1, Beta-lactamase (Pseudomonas aeruginosa, UniProt Q79MP6); assay: inhibition of IMP-1 beta-lactamase activity – biochemical, epi-absorbance, selectivity assay for VIM-2 inhibitor project, dose response (AID 1920)
# [4] = target: Beta-lactamase (Salmonella choleraesuis (strain SC-B67), UniProt Q5J463); assay: Epi-absorbance-based counterscreen for selective VIM-2 inhibitors: dose response biochemical high throughput screening assay to identify inhibitors of TEM-1 serine-beta-lactamase.
# [5] = target: T1, Beta-lactamase; assay: […] counterscreen for selective VIM-2 inhibitors: dose response biochemical high throughput screening assay to identify inhibitors of IMP-1 metallo-beta-lactamase.
# [6] = target: Mu-type opioid receptor (Homo sapiens, UniProt P35372); assay type: functional, cell-based;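 note: U2OS cells with beta-arrestin recruitment to OPRM1 by beta-gal complementation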
# [7] = target: 5-hydroxytryptamine receptor 2A (Mus musculus, UniProt P35363); assay type: functional, cell-based;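 note: CHO-K1 cells with tagged receptor and beta-arrestin; agonist potency measured as compound-induced activation of the receptor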
# [8] = target: T2, Low molecular weight phosphotyrosine protein phosphatase (Homo sapiens, UniProt P24666); assay type: functional; details: read-out: IC50_Mean
# T2 sequence (P24666 whole entry): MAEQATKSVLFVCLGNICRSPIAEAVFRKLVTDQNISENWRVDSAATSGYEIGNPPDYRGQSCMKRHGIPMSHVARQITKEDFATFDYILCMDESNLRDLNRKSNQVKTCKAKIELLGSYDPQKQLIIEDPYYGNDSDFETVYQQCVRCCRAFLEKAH
# [9] = target: T3, Sentrin-specific protease 8 (Homo sapiens, UniProt Q96LD8); assay type: functional;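 note: luminescence read-out of SENP8 inhibition, dose-response confirmation following an ultra-high-throughput screen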
# T3 sequence (Q96LD8 whole entry): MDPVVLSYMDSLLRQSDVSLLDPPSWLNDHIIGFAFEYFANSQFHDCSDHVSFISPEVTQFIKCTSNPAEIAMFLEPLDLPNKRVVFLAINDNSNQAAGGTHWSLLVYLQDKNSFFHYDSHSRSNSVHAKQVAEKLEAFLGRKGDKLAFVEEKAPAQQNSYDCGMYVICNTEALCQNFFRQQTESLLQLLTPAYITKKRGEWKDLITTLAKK
# [10] = target: T4, Caspase-3 (Homo sapiens, UniProt P42574); assay type: functional;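 note: Dose-response selectivity test against caspase-3 for candidate inhibitors of sentrin-specific proteases (SENPs)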
# T4 sequence (P42574 whole entry): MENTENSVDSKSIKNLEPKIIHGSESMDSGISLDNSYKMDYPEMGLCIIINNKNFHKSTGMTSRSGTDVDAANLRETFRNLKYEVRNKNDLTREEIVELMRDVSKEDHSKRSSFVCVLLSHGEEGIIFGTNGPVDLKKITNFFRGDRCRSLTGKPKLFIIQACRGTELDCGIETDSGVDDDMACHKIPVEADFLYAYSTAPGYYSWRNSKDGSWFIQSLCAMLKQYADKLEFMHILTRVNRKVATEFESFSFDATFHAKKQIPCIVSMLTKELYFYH
# [11] = target: T5, Sentrin-specific protease 6 (Homo sapiens, UniProt Q9GZR1); assay type: functional;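 note: Luminescence-based dose-response confirmatory assay of SENP6 inhibition, following up an ultra-high-throughput screen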
# T5 sequence (Q9GZR1 whole entry): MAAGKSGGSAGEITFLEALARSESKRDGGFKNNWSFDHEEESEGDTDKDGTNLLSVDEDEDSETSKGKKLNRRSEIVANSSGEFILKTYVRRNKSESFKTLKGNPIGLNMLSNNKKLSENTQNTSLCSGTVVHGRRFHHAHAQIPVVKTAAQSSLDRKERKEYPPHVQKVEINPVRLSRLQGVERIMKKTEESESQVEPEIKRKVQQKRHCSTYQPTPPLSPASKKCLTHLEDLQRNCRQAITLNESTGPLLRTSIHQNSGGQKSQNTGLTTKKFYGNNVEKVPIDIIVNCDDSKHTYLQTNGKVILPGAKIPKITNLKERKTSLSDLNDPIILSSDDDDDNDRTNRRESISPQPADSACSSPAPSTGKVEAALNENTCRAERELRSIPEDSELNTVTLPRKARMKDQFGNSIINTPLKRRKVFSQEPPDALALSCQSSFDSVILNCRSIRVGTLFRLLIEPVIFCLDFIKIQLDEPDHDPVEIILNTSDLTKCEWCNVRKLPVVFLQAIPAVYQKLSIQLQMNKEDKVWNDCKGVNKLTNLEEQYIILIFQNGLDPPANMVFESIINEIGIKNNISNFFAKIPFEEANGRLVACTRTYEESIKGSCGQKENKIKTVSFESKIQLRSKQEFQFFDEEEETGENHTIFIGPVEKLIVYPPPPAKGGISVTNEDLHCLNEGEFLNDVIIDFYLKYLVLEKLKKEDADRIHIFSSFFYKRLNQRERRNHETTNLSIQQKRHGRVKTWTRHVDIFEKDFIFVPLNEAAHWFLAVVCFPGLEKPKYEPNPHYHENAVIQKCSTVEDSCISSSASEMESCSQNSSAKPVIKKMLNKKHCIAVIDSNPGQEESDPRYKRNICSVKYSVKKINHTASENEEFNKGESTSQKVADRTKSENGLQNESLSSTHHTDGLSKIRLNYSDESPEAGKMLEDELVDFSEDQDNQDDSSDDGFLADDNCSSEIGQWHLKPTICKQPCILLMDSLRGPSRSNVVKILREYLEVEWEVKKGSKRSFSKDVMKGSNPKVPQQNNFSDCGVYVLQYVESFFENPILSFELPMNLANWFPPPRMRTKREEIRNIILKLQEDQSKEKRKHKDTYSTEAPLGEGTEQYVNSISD
# [12] = target: T2, Low molecular weight phosphotyrosine protein phosphatase; assay type: functional; details: read-out: IC50_Mean; remark: listed apart in the source
# [13] = target: T6, Sentrin-specific protease 7 (Homo sapiens, UniProt Q9BQF6); assay type: functional;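 note: Luminescence-based dose-response confirmation of ultra-high-throughput screening hits, measuring inhibition of SENP7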
# T6 sequence (Q9BQF6 whole entry): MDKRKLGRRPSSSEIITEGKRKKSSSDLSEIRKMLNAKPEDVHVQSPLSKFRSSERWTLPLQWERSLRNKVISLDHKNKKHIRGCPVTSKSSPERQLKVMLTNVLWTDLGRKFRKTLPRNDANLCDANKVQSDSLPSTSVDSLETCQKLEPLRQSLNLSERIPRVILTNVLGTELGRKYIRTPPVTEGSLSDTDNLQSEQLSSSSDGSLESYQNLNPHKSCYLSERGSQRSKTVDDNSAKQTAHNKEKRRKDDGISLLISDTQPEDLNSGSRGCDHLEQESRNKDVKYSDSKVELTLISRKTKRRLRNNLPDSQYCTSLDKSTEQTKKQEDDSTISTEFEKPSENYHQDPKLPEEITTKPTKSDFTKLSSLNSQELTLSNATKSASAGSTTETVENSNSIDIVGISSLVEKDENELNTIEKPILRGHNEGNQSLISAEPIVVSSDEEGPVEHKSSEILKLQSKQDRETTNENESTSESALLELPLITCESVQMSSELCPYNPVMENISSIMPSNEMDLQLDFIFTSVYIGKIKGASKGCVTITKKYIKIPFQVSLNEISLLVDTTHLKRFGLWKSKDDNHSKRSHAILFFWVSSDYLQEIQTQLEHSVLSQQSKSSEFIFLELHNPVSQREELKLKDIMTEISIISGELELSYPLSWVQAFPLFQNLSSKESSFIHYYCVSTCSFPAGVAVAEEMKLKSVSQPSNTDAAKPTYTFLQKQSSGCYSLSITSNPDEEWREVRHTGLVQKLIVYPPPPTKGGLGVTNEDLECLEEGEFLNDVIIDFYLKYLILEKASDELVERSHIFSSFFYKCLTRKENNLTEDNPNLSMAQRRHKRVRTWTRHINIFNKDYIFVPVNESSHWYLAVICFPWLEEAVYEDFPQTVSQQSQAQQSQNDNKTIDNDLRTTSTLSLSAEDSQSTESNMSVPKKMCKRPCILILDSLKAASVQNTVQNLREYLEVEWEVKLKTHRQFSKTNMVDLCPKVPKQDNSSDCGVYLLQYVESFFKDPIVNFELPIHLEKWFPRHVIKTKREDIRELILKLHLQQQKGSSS
# [14] = target: T7, Tyrosine-protein phosphatase non-receptor type 22 (Homo sapiens, UniProt Q9Y2R2); assay: PTPN22 enzyme inhibitors – biochemical, fluorescence, LYP catalytic domain, selectivity assay for LMPTP inhibitor project, dose response (AID 652006); assay type: functional; details: read-out: IC50_Mean
# T7 sequence (Q9Y2R2 whole entry): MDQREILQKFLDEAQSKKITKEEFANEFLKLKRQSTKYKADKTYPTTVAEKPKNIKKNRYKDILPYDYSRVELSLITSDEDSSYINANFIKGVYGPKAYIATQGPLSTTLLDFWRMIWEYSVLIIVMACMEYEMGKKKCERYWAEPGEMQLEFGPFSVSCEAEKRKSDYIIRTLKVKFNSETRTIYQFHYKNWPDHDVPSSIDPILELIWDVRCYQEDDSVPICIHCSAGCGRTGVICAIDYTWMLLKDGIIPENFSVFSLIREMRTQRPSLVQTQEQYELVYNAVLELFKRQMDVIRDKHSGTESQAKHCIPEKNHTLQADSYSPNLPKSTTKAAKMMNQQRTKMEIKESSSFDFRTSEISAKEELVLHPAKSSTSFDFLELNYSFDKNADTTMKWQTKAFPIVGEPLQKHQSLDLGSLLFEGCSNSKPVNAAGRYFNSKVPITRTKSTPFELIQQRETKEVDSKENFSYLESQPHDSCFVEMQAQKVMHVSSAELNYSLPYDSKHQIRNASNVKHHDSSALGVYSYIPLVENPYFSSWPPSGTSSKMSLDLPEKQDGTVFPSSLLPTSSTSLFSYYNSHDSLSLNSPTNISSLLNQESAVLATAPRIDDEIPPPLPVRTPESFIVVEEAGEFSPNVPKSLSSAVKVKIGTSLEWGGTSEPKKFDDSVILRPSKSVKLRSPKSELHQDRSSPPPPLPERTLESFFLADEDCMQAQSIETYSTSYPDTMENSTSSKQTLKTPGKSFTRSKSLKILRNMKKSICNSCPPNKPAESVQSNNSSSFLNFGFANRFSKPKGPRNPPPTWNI
# [15] = target: T8, Endoribonuclease toxin MazF (Escherichia coli K-12, UniProt P0AE70); assay: activation of MazEF endoribonuclease cleavage – biochemical, fluorescence, single-stranded RNA substrate, uHTS hits, dose response (AID 588481); assay type: functional
# T8 sequence (P0AE70 whole entry): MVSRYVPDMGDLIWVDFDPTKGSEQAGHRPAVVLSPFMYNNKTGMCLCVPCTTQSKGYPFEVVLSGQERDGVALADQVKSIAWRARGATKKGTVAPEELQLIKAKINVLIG
# [16] = target: T9, Sentrin-specific protease 1 (Homo sapiens, UniProt Q9P0U3); assay: Dose response confirmation of small molecule inhibitors of the catalytic domain of the SUMO protease, SENP1 in a FRET assay.; assay type: functional; details: read-out: IC50_Mean
# [17] = target: T10, Zinc finger protein mex-5 (Caenorhabditis elegans, UniProt Q9XUB2); assay: potency of MEX-5 RNA-binding blockers – biochemical, C. elegans, fluorescence polarization, dose response (AID 1960)
# T10 sequence (Q9XUB2 whole entry): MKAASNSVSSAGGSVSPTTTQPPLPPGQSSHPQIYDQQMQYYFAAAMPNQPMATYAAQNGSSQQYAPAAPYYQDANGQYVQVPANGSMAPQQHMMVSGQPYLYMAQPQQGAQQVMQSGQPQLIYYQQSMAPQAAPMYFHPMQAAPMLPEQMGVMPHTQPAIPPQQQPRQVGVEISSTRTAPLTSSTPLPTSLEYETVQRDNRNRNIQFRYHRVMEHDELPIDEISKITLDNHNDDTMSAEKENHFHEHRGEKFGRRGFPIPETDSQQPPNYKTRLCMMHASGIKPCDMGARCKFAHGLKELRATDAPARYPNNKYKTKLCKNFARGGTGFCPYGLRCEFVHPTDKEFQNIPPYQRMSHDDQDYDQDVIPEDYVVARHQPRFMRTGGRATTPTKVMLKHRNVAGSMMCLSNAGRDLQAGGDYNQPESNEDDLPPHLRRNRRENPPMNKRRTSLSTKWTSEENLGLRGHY
# [18] = target: T8, Endoribonuclease toxin MazF; assay: substrate-only fluorescence increase artefacts – biochemical, single-stranded RNase substrate, counter-screen for MazEF activator project, dose response (AID 588502); assay type: functional
# [19] = target: T9, Sentrin-specific protease 1; assay: SENP1 catalytic domain blockers, concentration series – biochemical, kinetic FRET, dose response (AID 651697); assay type: functional; details: read-out: IC50_Mean
# [20] = target: T11, RNA-binding protein pos-1 (Caenorhabditis elegans, UniProt G5EF15); assay: disruptors of C. elegans POS-1 RNA interaction – biochemical, fluorescence polarization, dose response (AID 1964);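 note: purified POS-1 fused to maltose binding protein made in E. coli; potency of compounds blocking POS-1 binding to fluorescent RNA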
# T11 sequence (G5EF15 whole entry): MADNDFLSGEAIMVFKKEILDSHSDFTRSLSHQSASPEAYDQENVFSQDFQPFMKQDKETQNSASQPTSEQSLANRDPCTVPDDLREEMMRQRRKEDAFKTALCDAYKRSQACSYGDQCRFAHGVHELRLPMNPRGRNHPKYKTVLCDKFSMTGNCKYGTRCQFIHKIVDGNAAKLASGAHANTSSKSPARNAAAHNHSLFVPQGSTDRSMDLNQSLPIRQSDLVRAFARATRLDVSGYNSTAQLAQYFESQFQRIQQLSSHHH
# T1 sequence (Q79MP6 whole entry): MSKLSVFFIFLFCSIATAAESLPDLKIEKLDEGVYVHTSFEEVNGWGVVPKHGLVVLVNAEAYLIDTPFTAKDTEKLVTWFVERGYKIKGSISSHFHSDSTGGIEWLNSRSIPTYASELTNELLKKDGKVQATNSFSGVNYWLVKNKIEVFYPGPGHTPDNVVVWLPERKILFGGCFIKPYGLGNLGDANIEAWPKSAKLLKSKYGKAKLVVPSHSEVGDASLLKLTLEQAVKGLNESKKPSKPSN
# T9 sequence (Q9P0U3 whole entry, the tested form may be a part): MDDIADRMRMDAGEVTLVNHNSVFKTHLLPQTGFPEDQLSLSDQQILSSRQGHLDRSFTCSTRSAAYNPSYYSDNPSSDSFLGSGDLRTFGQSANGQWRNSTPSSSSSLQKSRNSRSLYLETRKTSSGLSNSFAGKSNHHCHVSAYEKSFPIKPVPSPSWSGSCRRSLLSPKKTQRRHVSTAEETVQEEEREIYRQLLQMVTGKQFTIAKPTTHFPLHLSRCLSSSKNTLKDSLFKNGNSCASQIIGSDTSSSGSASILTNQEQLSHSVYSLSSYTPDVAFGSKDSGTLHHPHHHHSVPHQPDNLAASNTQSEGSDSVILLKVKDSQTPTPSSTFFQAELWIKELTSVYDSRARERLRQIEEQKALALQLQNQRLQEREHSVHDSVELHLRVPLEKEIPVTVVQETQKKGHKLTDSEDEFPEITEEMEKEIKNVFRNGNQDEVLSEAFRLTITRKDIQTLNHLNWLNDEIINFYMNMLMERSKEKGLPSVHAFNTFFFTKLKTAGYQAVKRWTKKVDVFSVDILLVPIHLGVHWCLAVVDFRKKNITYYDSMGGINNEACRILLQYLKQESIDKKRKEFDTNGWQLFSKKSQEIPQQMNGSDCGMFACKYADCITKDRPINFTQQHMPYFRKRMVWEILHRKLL
# Chain of Mu-type opioid receptor (P35372 whole entry): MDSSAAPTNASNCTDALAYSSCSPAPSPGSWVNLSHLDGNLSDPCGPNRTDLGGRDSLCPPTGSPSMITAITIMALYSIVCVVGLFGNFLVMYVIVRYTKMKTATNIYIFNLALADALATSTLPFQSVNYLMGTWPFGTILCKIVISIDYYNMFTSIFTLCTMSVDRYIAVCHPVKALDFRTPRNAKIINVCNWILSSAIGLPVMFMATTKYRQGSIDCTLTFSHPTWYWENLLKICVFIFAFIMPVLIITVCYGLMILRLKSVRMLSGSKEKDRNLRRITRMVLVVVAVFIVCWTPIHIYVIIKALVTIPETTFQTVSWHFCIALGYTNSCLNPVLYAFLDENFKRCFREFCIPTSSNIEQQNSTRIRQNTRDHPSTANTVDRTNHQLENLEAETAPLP
# Chain of Beta-lactamase (Salmonella choleraesuis (strain SC-B67), UniProt Q5J463) (Q5J463 whole entry): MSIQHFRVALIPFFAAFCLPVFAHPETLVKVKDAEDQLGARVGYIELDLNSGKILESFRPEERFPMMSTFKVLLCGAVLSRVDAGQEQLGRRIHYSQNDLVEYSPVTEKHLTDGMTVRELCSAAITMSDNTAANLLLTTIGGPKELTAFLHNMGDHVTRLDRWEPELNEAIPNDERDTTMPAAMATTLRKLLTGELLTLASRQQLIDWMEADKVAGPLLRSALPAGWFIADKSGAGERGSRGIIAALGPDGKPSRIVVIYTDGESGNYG
# Chain of Broad substrate specificity ATP-binding cassette transporter ABCG2 (Q9UNQ0 whole entry): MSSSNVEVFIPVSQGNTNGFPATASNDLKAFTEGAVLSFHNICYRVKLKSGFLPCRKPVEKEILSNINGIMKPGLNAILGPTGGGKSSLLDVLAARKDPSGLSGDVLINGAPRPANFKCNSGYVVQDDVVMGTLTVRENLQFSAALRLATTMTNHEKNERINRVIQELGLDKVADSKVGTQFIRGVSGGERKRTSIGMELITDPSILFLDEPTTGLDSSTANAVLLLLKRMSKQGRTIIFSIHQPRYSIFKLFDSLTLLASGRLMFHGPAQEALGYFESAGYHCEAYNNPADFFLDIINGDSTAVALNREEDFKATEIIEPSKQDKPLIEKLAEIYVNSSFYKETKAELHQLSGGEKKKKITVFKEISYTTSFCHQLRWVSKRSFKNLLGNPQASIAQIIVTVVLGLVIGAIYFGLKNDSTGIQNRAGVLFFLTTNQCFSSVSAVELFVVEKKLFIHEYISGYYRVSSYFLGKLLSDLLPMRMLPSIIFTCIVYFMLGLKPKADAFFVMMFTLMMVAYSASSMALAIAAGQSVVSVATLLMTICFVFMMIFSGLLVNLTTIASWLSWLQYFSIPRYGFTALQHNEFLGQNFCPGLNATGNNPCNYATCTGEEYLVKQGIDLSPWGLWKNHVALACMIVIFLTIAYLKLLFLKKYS
# Chain of ATP-dependent translocase ABCB1 (P08183 whole entry): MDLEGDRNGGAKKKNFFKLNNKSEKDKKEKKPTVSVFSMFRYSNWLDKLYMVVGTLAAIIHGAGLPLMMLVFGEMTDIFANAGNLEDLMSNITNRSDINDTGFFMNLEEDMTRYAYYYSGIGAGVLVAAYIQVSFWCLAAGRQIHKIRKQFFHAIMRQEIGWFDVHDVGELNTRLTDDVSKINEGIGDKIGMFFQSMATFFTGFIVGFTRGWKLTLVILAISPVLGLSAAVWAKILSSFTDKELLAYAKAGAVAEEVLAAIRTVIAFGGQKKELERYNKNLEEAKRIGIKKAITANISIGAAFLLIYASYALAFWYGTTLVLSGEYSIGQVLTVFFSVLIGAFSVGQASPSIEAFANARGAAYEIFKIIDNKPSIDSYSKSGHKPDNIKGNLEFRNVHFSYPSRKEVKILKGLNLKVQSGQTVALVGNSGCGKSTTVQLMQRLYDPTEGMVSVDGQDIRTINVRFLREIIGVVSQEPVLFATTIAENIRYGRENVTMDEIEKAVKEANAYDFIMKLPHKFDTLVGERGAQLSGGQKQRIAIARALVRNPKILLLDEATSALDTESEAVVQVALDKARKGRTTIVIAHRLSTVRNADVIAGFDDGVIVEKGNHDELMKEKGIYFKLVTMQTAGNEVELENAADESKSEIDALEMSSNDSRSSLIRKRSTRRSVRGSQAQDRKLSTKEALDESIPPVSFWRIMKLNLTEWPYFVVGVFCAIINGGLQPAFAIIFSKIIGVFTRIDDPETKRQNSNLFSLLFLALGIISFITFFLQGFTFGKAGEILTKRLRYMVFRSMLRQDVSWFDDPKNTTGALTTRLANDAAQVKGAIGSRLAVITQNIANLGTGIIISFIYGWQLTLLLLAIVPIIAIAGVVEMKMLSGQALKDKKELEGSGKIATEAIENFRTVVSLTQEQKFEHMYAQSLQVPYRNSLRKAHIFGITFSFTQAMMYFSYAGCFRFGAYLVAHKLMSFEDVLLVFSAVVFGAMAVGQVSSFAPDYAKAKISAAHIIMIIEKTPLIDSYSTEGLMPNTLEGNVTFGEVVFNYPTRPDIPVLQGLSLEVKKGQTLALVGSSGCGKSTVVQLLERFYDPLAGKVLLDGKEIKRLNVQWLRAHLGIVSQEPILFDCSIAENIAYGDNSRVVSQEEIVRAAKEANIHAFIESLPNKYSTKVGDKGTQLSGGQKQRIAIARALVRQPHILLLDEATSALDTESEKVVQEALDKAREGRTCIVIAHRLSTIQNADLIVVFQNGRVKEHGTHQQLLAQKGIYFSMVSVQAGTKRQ
# Chain of 5-hydroxytryptamine receptor 2A (P35363 whole entry): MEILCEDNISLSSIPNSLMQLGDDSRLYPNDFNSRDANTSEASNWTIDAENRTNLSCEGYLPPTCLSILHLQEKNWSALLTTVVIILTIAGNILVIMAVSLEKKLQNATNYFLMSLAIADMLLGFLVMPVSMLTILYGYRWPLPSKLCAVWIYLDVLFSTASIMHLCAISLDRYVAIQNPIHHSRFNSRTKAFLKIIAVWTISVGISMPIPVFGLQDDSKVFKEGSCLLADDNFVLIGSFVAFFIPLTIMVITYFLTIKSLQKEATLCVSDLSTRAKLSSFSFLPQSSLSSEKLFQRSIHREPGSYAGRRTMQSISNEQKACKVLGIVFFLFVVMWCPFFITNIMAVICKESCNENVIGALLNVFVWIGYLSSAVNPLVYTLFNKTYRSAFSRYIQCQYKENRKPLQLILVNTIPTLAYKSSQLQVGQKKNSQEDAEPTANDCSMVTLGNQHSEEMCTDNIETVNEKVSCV
smiles,measurement,setting,value
N#Cc1ccc(-c2ccc(OCC(=O)NCCc3ccccc3)cc2)cc1,EC50,[1],11.1 µM (inactive)
same,EC50,[2],3.76 µM (active)
CC1=C(C(=O)O)N2C(=O)C(NC(=O)c3nn(C)cc3[N+](=O)[O-])C2SC1 (stereo not given),IC50,[3],> 59.6 µM (inactive)
same,IC50,[4],> 59.6 µM (inactive)
same,IC50,[5],> 59.6 µM (inactive)
O=C(C1CCN(CCCc2ccccc2)CC1)N1CCCCC1,EC50,[6],92.5 µM (inactive)
same,EC50,[7],76.1 µM (inactive)
O=C(/C=C/c1ccc(Br)cc1)NC(=O)c1ccccc1O,IC50,[8],22.2 µM (inactive)
same,IC50,[9],26.9 µM (active)
same,IC50,[10],> 100 µM (inactive)
same,IC50,[11],15.2 µM (active)
same,IC50,[12],9.98 µM (active)
same,IC50,[13],8.1 µM (active)
same,IC50,[14],43.6 µM (inactive)
COc1ccc2c(c1)c1nc3ccccc3nc1n2Cc1ccc(OC)c(OC)c1,EC50,[15],> 99 µM (inactive)
same,IC50,[16],6.84 µM (active)
same,EC50,[17],43.1 µM (active)
same,EC50,[18],87.9 µM (inactive)
same,IC50,[19],14.1 µM (active)
same,EC50,[20],32.6 µM (active)
